Earlier results, collected in patent US20220175648A1, “TOPICAL FORMULATIONS WITH LIPID-BASED CARRIERS” (KATE ROSE LLC, priority 2020, published 2022).

Experiments:
[1] = after just one year
age spots = details: 10% solution
[2] = test system: UV B and reactive oxygen species; details: in vitro studies
collagen synthesis = details: versus L-ascorbic acid at the same dosage

Row | break down of L-ascorbic acid [1] [%] | Compound | presence of age spots (age spots) | protection against UV B and reactive oxygen species [2] | increase of collagen synthesis (collagen synthesis)
1 | 20 | O=C1O[C@H]([C@@H](O)CO)C(O)=C1O [L-ascorbic acid] | – | – | –
2 | – | CCCCCCCCC(CCCCCC)C(=O)OC[C@H](OC(=O)C(CCCCCC)CCCCCCCC)[C@H]1OC(=O)C(OC(=O)C(CCCCCC)CCCCCCCC)=C1OC(=O)C(CCCCCC)CCCCCCCC (stereo partly shown) [THD, Tetrahexyldecyl ascorbate] | decreases the presence of age spots | effective at protecting against UV B and reactive oxygen species | up to two times greater than L-ascorbic acid
